In article PMC10959927, “Platinum iodido drugs show potential anti-tumor activity, affecting cancer cell metabolism and inducing ROS and senescence in gastrointestinal cancer cells” (Communications Biology, 2024):
Where “and” joins values, the source holds several entries; their conditions need not be identical. Identical values can stand only once.

Key:
Format in all cases: cell-based, human
[1] = test system: PANC1 cells; test: Seahorse XF OCR, ECAR and energy map; design: Basal resp. / Maximal resp. / SRC: unit not given here
Protocol: Oxygen Consumption Rate (OCR), Extra Cellular Acidification Rate (ECAR) and Energy map measurements. Cells were plated in XF HS Miniplates (Seahorse Bioscience) at a cellular density of 1 × 10^4 cells/well and incubated overnight. […] After an OCR baseline measurement, the minimum oxygen consumption was determined by adding 1.5 µM oligomycin (O) and the maximal respiration rate was assessed by adding 1 µM carbonyl cyanide p-trifluoro methoxyphenylhydrazone (FCCP, F). At the end of the experiment, the non-mitochondrial oxygen consumption was evaluated by adding both 0.5 µM rotenone (R) and antimycin (A). Experiments were run in a XF HS Mini analyzer (Seahorse Agilent), and raw data were normalized to total protein using a BCA protein assay kit (Cat. no. 23225, Thermo Scientific).

[2] = test system: AGS cells; test: ATP determination assay (bioluminescence); settings: replicates
Protocol: (§1) ATP determination assay. […] The analysis was performed using the ATP Bioluminescense Assay Kit CLS II (Cat. no. 11699695001, Roche) according to the manufacturer’s instructions. […] Data were normalized to total protein using the BCA protein assay kit (Thermo Scientific).

[3] = test system: MKN45 cells; test: ATP determination assay (bioluminescence); settings: replicates
Protocol: as §1

[4] = test system: PANC1 cells; test: ATP determination assay (bioluminescence); settings: replicates
Protocol: as §1

[5] = test system: AGS cells; test: Lactate production assay; settings: replicates
Protocol: (§2) Lactate production assay. […] Proteins were removed from 50 μL of the medium by adding 100 μL of 8% Percloric Acid and 40% EtOH at 4 °C, and centrifuging at 2 × 10^4 g for 10 min at 4 °C. The supernatants were then frozen until the lactate in 15 μL of each sample, or lactate standard, was measured mixed with 150 μl of assay buffer (0.5 M glycine [pH 9.5], 0.2 M Hydrazine, 3.4 mM EDTA), 100 μl of H20, 5 μL of 1100 U/mL LDH (Roche) and 30 μL of 15 mM NAD + . NADH production was evaluated by measuring absorbance at 340 nm in a multiplate reader (Synergy HT, Biotek) and it was proportional to the lactic acid concentration in the sample after a 2 h incubation. The lactate concentration was normalized to the total amount of protein measured with the Micro BCA Protein Assay Kit (Thermo Scientific). Assays were performed in triplicate in three independent experiments.

[6] = test system: MKN45 cells; test: Lactate production assay; settings: replicates
Protocol: as §2

[7] = test system: PANC1 cells; test: Lactate production assay; settings: replicates
Protocol: as §2

[8] = test system: PANC1 cells; test: ROS detection by confocal microscopy (DHE, MitoSox); settings: PANC1, 1 h treatment; H2O2 200 µM, CDDP 10 µM, I5 20 µM, I6 20 µM
Protocol: Tumor cells were seeded at a density of 3 × 10^5 cells in 15 µm 8-well IBIDI plates and incubated overnight. […] Subsequently, cells were stained with 10 μM of dihydroethidium (DHE, cytosolic O2^·- probe, Sigma-Aldrich) or with 5 μM of Mitosox (mitochondrial O2^·- probe, Sigma-Aldrich) for 15–30 min[79] and then visualized on a confocal microscope (Confocal LSM 710 Zeiss, Biomedical Research Institute Alberto Sols, IIBm-CSIC-UAM, Madrid, Spain). The image analysis was realized using the software program Image J.

[9] = test system: AGS cells; test: Clonogenic (CFU) assay with or without NAC; settings: 10 days
Protocol: (§3) For the clonogenic assay we used two different approaches. […] Then, cells were cultured in a 6-well plate at a very low concentration (2 × 10^3 cells per well) and incubated for 10 days. […] To evaluate the role of ROS in cell proliferation, we supplemented the growth medium with 0.5 mM NAC. After 10 days, the cells were fixed with 1% glutaraldehyde and stained with 0.1% crystal violet. The number of colonies was quantified directly and reflected as CFUs: Colony Forming Units.

[10] = test system: MKN45 cells; test: Clonogenic (CFU) assay with or without NAC; settings: 10 days
Protocol: as §3

CC(C)[NH][Pt@SP1]([I])([I])[NH]C(C)C [I6, cis-[PtI2(isopropylamine)2]]
ECAR, Mean (energy map) ([1]; PANC1 (with I5)): 7.18 mpH/min/absorbance | OCR, Mean (energy map) ([1]; PANC1 (with I5)): 8.75 pmol/min/absorbance | ECAR (energy map) ([1]; PANC1 (with I6)): 32.52 mpH/min/absorbance | ECAR, Mean (energy map) ([1]; PANC1 (with I6)): 146.969 mpH/min/absorbance | OCR (energy map) ([1]; PANC1 (with I6)): 147 pmol/min/absorbance | OCR, Mean (energy map) ([1]; PANC1 (with I6)): 32.5207 pmol/min/absorbance | ATP-product. coupled resp. ([1]; PANC1, IC50 24 h): 76.46 and 74.62 and 73.2 | Basal resp. ([1]; PANC1, IC50 24 h): 102.88 and 97.93 and 95.39 | Maximal resp. ([1]; PANC1, IC50 24 h): 174.57 and 152.73 and 164.59 | SRC ([1]; PANC1, IC50 24 h): 71.69 and 54.8 and 69.2 | effect on ECAR ([1]; PANC1, IC50 24 h): no apparent effect | OCR ([1]; PANC1, IC50 24 h, time 1.53 min (I5) / 1.53 min (I6)): 159.562 pmoles/min/µg protein and 146.086 pmoles/min/µg protein and 145.09 pmoles/min/µg protein | OCR ([1]; PANC1, IC50 24 h, time 8.03 min (I5) / 8.01 min (I6)): 147.434 pmoles/min/µg protein and 135.357 pmoles/min/µg protein and 133.103 pmoles/min/µg protein | OCR ([1]; PANC1, IC50 24 h, time 14.5 min (I5) / 14.5 min (I6)): 143.038 pmoles/min/µg protein and 132.495 pmoles/min/µg protein and 129.978 pmoles/min/µg protein | OCR ([1]; PANC1, IC50 24 h, time 21.08 min (I5) / 21.07 min (I6)): 66.5745 pmoles/min/µg protein and 57.8765 pmoles/min/µg protein and 56.7739 pmoles/min/µg protein | OCR ([1]; PANC1, IC50 24 h, time 27.58 min (I5) / 27.55 min (I6)): 66.0035 pmoles/min/µg protein and 58.3571 pmoles/min/µg protein and 57.0179 pmoles/min/µg protein | OCR ([1]; PANC1, IC50 24 h, time 34.08 min (I5) / 34.04 min (I6)): 69.58 pmoles/min/µg protein and 62.2166 pmoles/min/µg protein and 61.4483 pmoles/min/µg protein | OCR ([1]; PANC1, IC50 24 h, time 40.66 min (I5) / 40.6 min (I6)): 214.725 pmoles/min/µg protein and 187.294 pmoles/min/µg protein and 199.178 pmoles/min/µg protein | OCR ([1]; PANC1, IC50 24 h, time 47.17 min (I5) / 47.09 min (I6)): 200.494 pmoles/min/µg protein and 175.489 pmoles/min/µg protein and 184.522 pmoles/min/µg protein | OCR ([1]; PANC1, IC50 24 h, time 53.68 min (I5) / 53.58 min (I6)): 196.779 pmoles/min/µg protein and 170.973 pmoles/min/µg protein and 177.854 pmoles/min/µg protein | OCR ([1]; PANC1, IC50 24 h, time 60.22 min (I5) / 60.14 min (I6)): 40.9467 pmoles/min/µg protein and 34.6667 pmoles/min/µg protein and 34.4666 pmoles/min/µg protein | OCR ([1]; PANC1, IC50 24 h, time 66.71 min (I5) / 66.63 min (I6)): 41.5272 pmoles/min/µg protein and 35.8152 pmoles/min/µg protein and 35.5577 pmoles/min/µg protein | OCR ([1]; PANC1, IC50 24 h, time 73.19 min (I5) / 73.15 min (I6)): 40.1567 pmoles/min/µg protein and 34.5626 pmoles/min/µg protein and 34.5904 pmoles/min/µg protein | ATP assay [2]: 0.001 nmoles ATP/mg prot and 0.003 nmoles ATP/mg prot and 0.01 nmoles ATP/mg prot and 0 nmoles ATP/mg prot and 0.005 nmoles ATP/mg prot and 0.002 nmoles ATP/mg prot | ATP assay [3]: 5246 nmoles ATP/mg prot and 3320.9 nmoles ATP/mg prot and 18883.3 nmoles ATP/mg prot and 23272 nmoles ATP/mg prot and 3325.73 nmoles ATP/mg prot and 3863.84 nmoles ATP/mg prot and 4434 nmoles ATP/mg prot and 3684.47 nmoles ATP/mg prot and 4201.47 nmoles ATP/mg prot | ATP assay [4]: 7880 nmoles ATP/mg prot and 13332.3 nmoles ATP/mg prot and 3956 nmoles ATP/mg prot and 3277.42 nmoles ATP/mg prot and 6180.37 nmoles ATP/mg prot and 5189.49 nmoles ATP/mg prot and 6520 nmoles ATP/mg prot and 7744.41 nmoles ATP/mg prot and 6743.81 nmoles ATP/mg prot | lactate assay [5]: 3.22 Lactate mM/mg prot and 1.52 Lactate mM/mg prot and 3.74 Lactate mM/mg prot and 3.2668 Lactate mM/mg prot and 2.67 Lactate mM/mg prot and 5.511 Lactate mM/mg prot and 0.01 Lactate mM/mg prot and 0.02 Lactate mM/mg prot and 0.03 Lactate mM/mg prot | lactate assay [6]: 3.98 Lactate mM/mg prot and 8.05 Lactate mM/mg prot and 7.53 Lactate mM/mg prot and 3.819 Lactate mM/mg prot and 1.91 Lactate mM/mg prot and 4.092 Lactate mM/mg prot and 2.56 Lactate mM/mg prot and 2.5 Lactate mM/mg prot and 2.54 Lactate mM/mg prot | lactate assay [7]: 11.33 Lactate mM/mg prot and 12.9 Lactate mM/mg prot and 10.14 Lactate mM/mg prot and 5.296 Lactate mM/mg prot and 5.829 Lactate mM/mg prot and 4.94 Lactate mM/mg prot and 4.32 Lactate mM/mg prot and 4.21 Lactate mM/mg prot and 4.26 Lactate mM/mg prot | DHE fluorescence intensity (per cell), cytosolic O2•− [8]: 98.4842 and 86.3637 and 85.797 and 82.1548 and 76.0203 and 75.3191 | Mitosox fluorescence intensity (per cell), mitochondrial O2•− [8]: 91.9093 and 80.7891 and 70.3911 and 69.2294 and 66.6051 and 57.9644 | colonies (CFUs), mean ± SD ([9]; AGS + NAC 0.5 mM, IC25 concentration): 613 ± 89 | colonies (CFUs), mean ± SD ([9]; AGS + NAC 0.5 mM, IC50 concentration): 329 ± 152 | colonies (CFUs), mean ± SD ([9]; AGS, IC25 concentration, no NAC): 268 ± 63 | colonies (CFUs), mean ± SD ([9]; AGS, IC50 concentration, no NAC): 0 | colonies (CFUs), mean ± SD ([10]; MKN45 + NAC 0.5 mM, IC25 concentration): 526 ± 93 | colonies (CFUs), mean ± SD ([10]; MKN45 + NAC 0.5 mM, IC50 concentration): 46 ± 2 | colonies (CFUs), mean ± SD ([10]; MKN45, IC25 concentration, no NAC): 1 ± 1.7 | colonies (CFUs), mean ± SD ([10]; MKN45, IC50 concentration, no NAC): 0
